{"source": "patent US20200163913A1", "about": "(Shanghai Huali Biomedical Co., Ltd., priority 2017, published 2020)", "key": {"Arylsulfatase": {"biological_target": "Arylsulfatase", "assay": "Arylsulfatase activity assay in vitro", "type": "biochemical", "conditions": "p-nitrophenyl sulfate substrate, 405 nm; read-out: IC50 sulfatase", "method": "Weigh an appropriate amount of the test compound and dissolve it in dimethyl sulfoxide. Dilute it with Tris-HCl buffer for 2, 5, 10, 20, 50, 100, 200, 500, 1000, 2000, 5000, and 10,000 times. Add another dilution gradient to the sample. Arylsulfatase and potassium p-nitrophenyl sulfate are directly dissolved in Tris-HCl buffer. 40 μL of the test compound, 50 μL of arylsulfatase and 50 μL of potassium p-nitrobenzene sulfate were added to a 96-well plate for reaction. A blank control without enzymes and a standard control without test compounds are used. The volume is made up with Tris-HCl buffer. 405 nm detection in the microplate reader, each sample is measured for 40 times, and the interval is 30 s. The representative time node within the time period with good linearity of the absorbance value are selected for data analysis. The measured absorbance value are subtracted from the background value of the blank control and the initial value when the reaction time are 0. For comparison, calculate the inhibition rate at different concentrations, and use the built-in forecast function of excel to predict the IC50 value."}, "[1]": {"system": "human gastric cancer cell MGC-803", "assay": "CCK-8 cell proliferation inhibition, MGC-803", "type": "cell-based", "conditions": "read-out: IC50 MGC803", "method": "(§1) Take more than 90% of live cells for experiments. Cell proliferation inhibition test uses EnoGeneCell™ Counting Kit-8 (CCK-8) cell viability detection kit. Cells are digested and counted to make a cell suspension with a concentration of 1×10^5 cells/mL, 100 μL of cell suspension (1×10^4 cells per well) was added to each well of a 96-well plate; Incubate in a 5% CO2 incubator for 24 hours; add 100 μL of the corresponding drug-containing culture medium to each well, and set a negative control group, a vehicle control group, and a positive control group, with 5 replicates in each group; place the 96-well plate at 37° C."}, "[2]": {"system": "human cervical cancer cell HeLa", "assay": "CCK-8 cell proliferation inhibition, HeLa", "type": "cell-based", "method": "as §1"}, "[3]": {"system": "human gastric cancer cell MKN45", "assay": "CCK-8 cell proliferation inhibition, MKN45", "type": "cell-based", "conditions": "read-out: IC50 MKN45", "method": "as §1"}, "[4]": {"assay": "Acute toxicity test of single intragastric administration of mice", "conditions": "both sexes, Kunming, mouse, in vivo, po, 14 days observation", "method": "Kunming mice (body weight: 17-22 g, male and female), randomly divided according to body weight. […] The doses were 150, 130, 120, 110, 100, 90, 80, 70, 60, 50, 40, 30 mg/kg by single intragastric administration, 0.25 h, 0.5 h, 1 h, 2 h after administration Observe once every 4 h, 24 h, and then record the mortality, then observe it once a day, record the mortality for 14 days, and sacrifice the undead mice on the 15th day for pathological dissection."}, "Tubulin": {"system": "Tubulin", "assay": "Tubulin polymerization activity test", "type": "biochemical", "conditions": "tubulin 4.8 mg/ml, 37° C., 340 nm; read-out: IC50 (Table 3, tubulin polymerization test)", "method": "Tubulin (4.8 mg/ml) protein was mixed with the test compound in a PEM buffer (100 mM PIPES, 1 mM MgCl2 and 1 mM EGTA) containing 1 mM GTP and 5% glycerol. A SPECTRA MAX 190 (Molecular Device) spectrophotometer was used to monitor the microtubule polymerization at 37° C. by light scattering at 340 nm, and the microtubule polymerization was calculated from the absorbance value. Each sample was tested three times at ten different concentrations."}, "[5]": {"system": "human liver cancer cell HepG2", "assay": "CCK-8 cell proliferation inhibition, HepG2", "type": "cell-based", "conditions": "read-out: IC50 HepG2", "method": "as §1"}, "sarcoma S180": {"system": "sarcoma S180", "assay": "Tumor inhibition rate on sarcoma S180 mouse transplantation tumor", "type": "in vivo, mice", "conditions": "for tumor observation: 8th day after administration; for Inhibition rate (tumor weight): dose 25 mg/kg, d0-d12 7 times, sacrifice day 14", "source_text": "After 1 week of adaptation, the mice were inoculated subcutaneously with sarcoma S180 tumor tissue. After the tumor grew 100-300 mm3, the animals were randomly divided into groups."}, "[6]": {"system": "human lung cancer cell A549", "assay": "CCK-8 cell proliferation inhibition, A549", "type": "cell-based", "method": "as §1"}, "[7]": {"system": "human colon cancer cell HCT-116", "assay": "CCK-8 cell proliferation inhibition, HCT-116", "type": "cell-based", "method": "as §1"}, "[8]": {"conditions": "Homo sapiens, HeLa, 72 h, CCK-8, 72 h, read-out: IC50 Hela"}, "[9]": {"conditions": "Homo sapiens, HeLa, read-out: IC50 HeLa"}, "[10]": {"conditions": "Homo sapiens, HepG2, 72 h, CCK-8, 72 h"}, "[11]": {"conditions": "Homo sapiens, HepG2, running text"}, "[12]": {"conditions": "A549, CCK-8, 72 h, read-out: IC50 A549"}, "[13]": {"conditions": "Homo sapiens, HCT-116, 72 h, CCK-8, 72 h, read-out: IC50 HTC116"}, "[14]": {"conditions": "Homo sapiens, HCT-116, running text, read-out: IC50 HCT-116"}}, "note": "Where two headings read alike, the source gives them in different places."}
{"compound": "COc1ccc(/C=C\\c2cc(OC)c(OC)c(OC)c2)cc1OS(N)(=O)=O", "note": "[Compound A1-1, (Z)-3,4,5-trimethoxy-4′-methoxy-3′-sulfamate stilbene]", "values": [{"measurement": "IC50", "setting": "Arylsulfatase", "result": 6.16, "unit": "µM"}, {"measurement": "IC50", "setting": "[1]; MGC-803, 72 h, CCK-8, 72 h", "result": 0.298, "unit": "µM"}, {"measurement": "IC50", "setting": "[1]; MGC-803, running text", "result": "< 0.6", "unit": "µM"}, {"measurement": "IC50", "setting": "[2]; [8]", "result": 0.458, "unit": "µM"}, {"measurement": "IC50", "setting": "[2]; [9]", "result": 0.34, "unit": "µM"}, {"measurement": "IC50", "setting": "[3]; MKN-45, 72 h, CCK-8, 72 h", "result": 0.599, "unit": "µM"}, {"measurement": "IC50", "setting": "[3]; MKN-45, running text", "result": "< 0.6", "unit": "µM"}, {"measurement": "LD50 at 14 days", "setting": "[4]", "result": 106, "unit": "mg/kg"}, {"measurement": "IC50", "setting": "Tubulin", "result": 6.6, "unit": "µM"}, {"measurement": "IC50", "setting": "[5]; [10]", "result": 0.335, "unit": "µM"}, {"measurement": "IC50", "setting": "[5]; [11]", "result": "< 1", "unit": "µM"}, {"measurement": "tumor observation", "setting": "sarcoma S180", "result": "shrinking trend"}, {"measurement": "Inhibition rate (tumor weight)", "setting": "sarcoma S180", "result": 42, "unit": "%"}, {"measurement": "IC50", "setting": "[6]; [12]", "result": 0.481, "unit": "µM"}, {"measurement": "IC50", "setting": "[6]; A549, read-out: IC50 A549", "result": "< 0.5", "unit": "µM"}, {"measurement": "IC50", "setting": "[7]; [13]", "result": 0.222, "unit": "µM"}, {"measurement": "IC50", "setting": "[7]; [14]", "result": 0.222, "unit": "µM"}]}
{"compound": "CCOc1ccc(/C=C\\c2cc(OC)c(OC)c(OC)c2)cc1OS(N)(=O)=O", "note": "[Compound A2-1, (Z)-3,4,5-trimethoxy-4′-ethoxy-3′-sulfamate stilbene]", "values": [{"measurement": "IC50", "setting": "[1]; MGC-803, 72 h, CCK-8, 72 h", "result": 0.267, "unit": "µM"}, {"measurement": "IC50", "setting": "[1]; MGC-803, running text", "result": "< 0.5", "unit": "µM"}, {"measurement": "IC50", "setting": "[2]; [8]", "result": 0.48, "unit": "µM"}, {"measurement": "IC50", "setting": "[2]; [9]", "result": 0.48, "unit": "µM"}, {"measurement": "IC50", "setting": "[2]; listed as (Z)-3,4,5-trimethoxy-4′-ethoxy-3′-aminosulfamatestilbene, read-out: IC50 HeLa", "result": "< 0.5", "unit": "µM"}, {"measurement": "IC50", "setting": "[3]; MKN-45, 72 h, CCK-8, 72 h", "result": 0.325, "unit": "µM"}, {"measurement": "IC50", "setting": "[3]; MKN-45, running text", "result": "< 0.5", "unit": "µM"}, {"measurement": "LD50 at 14 days", "setting": "[4]", "result": 101, "unit": "mg/kg"}, {"measurement": "IC50", "setting": "[5]; [10]", "result": 0.413, "unit": "µM"}, {"measurement": "IC50", "setting": "[5]; [11]", "result": "< 1", "unit": "µM"}, {"measurement": "IC50", "setting": "[5]; listed as (Z)-3,4,5-trimethoxy-4′-ethoxy-3′-aminosulfamatestilbene", "result": "< 0.5", "unit": "µM"}, {"measurement": "tumor observation", "setting": "sarcoma S180", "result": "shrinking trend"}, {"measurement": "Inhibition rate (tumor weight)", "setting": "sarcoma S180", "result": 40, "unit": "%"}, {"measurement": "IC50", "setting": "[6]; [12]", "result": 0.229, "unit": "µM"}, {"measurement": "IC50", "setting": "[6]; A549, read-out: IC50 A549", "result": "< 0.5", "unit": "µM"}, {"measurement": "IC50", "setting": "[7]; [13]", "result": 0.446, "unit": "µM"}, {"measurement": "IC50", "setting": "[7]; [14]", "result": 0.446, "unit": "µM"}, {"measurement": "IC50", "setting": "[7]; listed as (Z)-3,4,5-trimethoxy-4′-ethoxy-3′-aminosulfamatestilbene, read-out: IC50 HCT-116", "result": "< 0.5", "unit": "µM"}]}
